Assay results reported in article PMC10874388, “Cyclic peptides discriminate BCL-2 and its clinical mutants from BCL-XL by engaging a single-residue discrepancy” (Nature Communications, 2024).
“And” between values parts separate entries of the source, which are not always exact repeats. Equal entries are not always repeated.

Columns and labels:
BCL-XL = molecular target: T1, BCL-XL (Homo sapiens, UniProt Q07817, DEL27-81); assay: SPR binding assay, BCL-XL; conditions: affinity fitting, mean ± SD of three independent experiments, 25 °C
T1 construct: human BCL-XL (residues 1–210, with 27–81 and 210–233 removed); vector-borne tag of pET-22b (Ni-NTA purification implies a His tag); made in house; host or cells: E. coli BL21 (DE3)
T1 sequence (Q07817 with tags, fused parts or gaps DEL27-81): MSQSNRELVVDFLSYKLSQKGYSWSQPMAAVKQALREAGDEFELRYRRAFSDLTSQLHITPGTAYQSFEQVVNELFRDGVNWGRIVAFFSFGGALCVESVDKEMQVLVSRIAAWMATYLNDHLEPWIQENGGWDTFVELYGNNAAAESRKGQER
Description: The DNA fragments encoding human BCL-XL ([…], with […] removed), BCL-w (residues 6–152), MCL-1 (residues 152–308) and BFL-1 (residues 1–151) as previously reported[18] were cloned into a pET-22b vector (Invitrogen), respectively. A chimeric human BCL-2 (including residues 1–50 and 92–207) was constructed, by removing the internal long loop (residues 51–91) and replacing its residues 35–50 with residues 33–48 of BCL-XL to solubilize the protein[14], and then it was cloned into a pET28a-Sumo vector (Invitrogen). All BCL-2 mutants (G101V, F104L, Y103D, D111A) were generated by mutagenic PCR, according to the QuikChange (Stratagene) protocol.
SPR assays were performed using a Biacore T200 instrument in running buffer consisting 10 mM PBS, 50 μM EDTA and 0.05% Tween-20 at 25 °C. Biotinylated proteins were immobilized on a CAP sensor chip (Cytiva, 28920234). […] The binding affinities were quantified by the Biacore evaluation software using 1:1 binding model. The reproducibility of the assays was confirmed by performing replicate determinations.

Jurkat cells [1] = assay: Apoptosis assay, Annexin V-FITC/PI staining and flow cytometry; type: cell-based
Protocol: Jurkat cells were seeded to 6-well plates at a density of 4 ×10^5 cells per well. Cells were incubated in the presence of DMSO, venetoclax at 2.5 μM, cp1-TAT at 30 μM, cp2-TAT at 30 μM, or cp3-TAT at 20 μM in serum-free RPMI medium for 4 h. After being incubated totally for 24 h, cells were washed once with PBS and stained with 100 μL binding buffer containing 5 μL Annexin V-FITC and 10 μL PI for 15 min, followed by addition of 400 μL binding buffer to detect cell apoptosis with FCM (BD FACSAria Fusion). Statistical analysis was performed using software FlowJo V10 and GraphPad Prism 7.0.

Jurkat cells [2] = assay: Cytochrome C release assay (mitochondrial cytochrome C, Western blot); type: cell-based; conditions: 2.5 μM, 12 h
Protocol: Jurkat cells at 2 ×10^6 cells/mL were incubated in the presence of DMSO or 50 μM BIP-V5 inhibitor[54] (Yuanye Biotechnology Co., Ltd, 579492-81-2) for 24 h. Two groups of above treated cells were each divided into four groups and incubated in the presence of DMSO, venetoclax at 2.5 μM, cp4-TAT at 20 μM, or cp5-TAT at 15 μM in serum-free RPMI medium for 4 h. Then the medium was supplemented with FBS to 10% and incubated for another 8 h. After being treated by venetoclax or CPs for totally 12 h, cell were processed with the Mitochondrial Separation Kit (Beyotime, C3601) to extract mitochondria. Cytochrome C in mitochondria and BAX proteins in the whole cells were detected by Western blot.
Cell lysates containing equal amounts of total proteins were denatured, subjected to electrophoresis on SDS-PAGE gels, and transferred onto nitrocellulose membranes. The blots were blocked with 5% skim milk and then incubated at 4 °C overnight with the corresponding primary antibodies against BCL-2 (dilution 1:1000, Abcam, ab194583), BCL-XL (dilution 1:1000, Abcam, ab32370), anti-Flag (dilution 1:1000, Sigma, F1804), cytochrome C (dilution 1:1000, Beyotime, AC909), BAX (dilution 1:1000, Beyotime, AB026), α-Tubulin (dilution 1:3000, Abcam, ab7291), or β-Actin (dilution 1:3000, Abcam, ab8227). […]

BCL-2 G101V = test system: BCL-2 G101V; set-up: method as in PMID 31160589; conditions: SPR assays; cited from earlier work

## O=C(c1cc(-c2cc3c(cc2C(=O)N2Cc4ccccc4C[C@H]2CN2CCOCC2)OCO3)n2c1CCCC2)N(c1ccccc1)c1ccc(O)cc1 [S55746]
BCL-XL
  Kd: 175 ± 42 nM

## CC1(C)CCC(CN2CCN(c3ccc(C(=O)NS(=O)(=O)c4ccc(NCC5CCOCC5)c([N+](=O)[O-])c4)c(Oc4cnc5[nH]ccc5c4)c3)CC2)=C(c2ccc(Cl)cc2)C1 [venetoclax]
Jurkat cells [1]; Figure 6b, replicate values
  cell apoptosis(%): 94.5% and 85.6%
Jurkat cells [1]; Jurkat, 24 h, 2.5 μM
  Proportion of apoptotic cells: 94.5%
Jurkat cells [2]
  Cytochrome C level in mitochondria: decreased clearly
BCL-2 G101V
  Reduction of binding affinity of BCL-2 to venetoclax by G101V: ~ 180 fold
